For one data set, the system named is mice. Conditions: cited from earlier work.
For a further data set, the system named is Salmonella. The conditions noted are these: cited from earlier work.
The next data set has as its system mammalian cells. The conditions noted are these: mammalian cells in vitro; cited from earlier work.
The test system of data set [1] is primary mouse keratinocytes. Kind of data set: Differential display and Northern blot hybridization of mRNAs in treated primary mouse keratinocytes. The data set is classed as cell-based. The conditions noted are these: 24 hours treatment. Here is the method: Cultures of newborn mouse keratinocytes were established essentially as described by H. Hennings (In Keratinocyte Methods, Cambridge University Press (1994), pages 21-23). Briefly, mice two to three days postpartum were sacrificed by metaphane narcosis, rinsed in 70% ethanol, and kept on ice. Skins were peeled off, stretched out and floated (with epidermis facing upward) on the surface of a 0.25% trypsin solution in Ca^+2, Mg^+2 free PBS overnight at 4° C. Skins were transferred to a sterile surface, the epidermis was separated from dermis, the epidermis was minced, and the mixture stirred in serum-free keratinocyte growth medium (KGM, Clonetics). This cell suspension was filtered through nylon gauze, cells were centrifuged (2,000 rpm for 5 min), resuspended in KGM with 20 μM Ca^+2 (20 KGM), and then the cells were counted and plated (approximately 2×10^6 per 10 cm plate coated with mouse collagen type IV in 20 KGM) and the cell cultures were incubated at 37° C. with a 7% CO2. After 16-24 hours, cells were washed in Ca^+2, Mg^+2 free phosphate buffered saline (PBS), and cultivated on 20 KGM, with the cell culture medium changed (that is, old medium discarded and fresh medium provided) each other day. For induction of terminal differentiation, medium was changed, usually on the sixth day of cultivation of the keratinocytes, to KGM containing 1.2 mM Ca^+2, and the keratinocytes were cultivated for 24 hours before RNA isolation.
For phorbol-myristate acetate (TPA) treatment, keratinocyte cultures were fed with 20 KGM containing 0.1 μg/ml of 12-O-tetradecanoyil-13-phorbol-acetate for 24 hours, before isolation of RNA.
Total RNA was isolated by acid phenol procedure using TRI Reagent™ (Molecular Research Center, Inc.) and according to manufacturer's instructions from (1) terminally differentiated keratinocytes, cultivated in KGM medium containing 1.2 mM Ca^+2 for 24 hours; (2) TPA-treated keratinocytes, cultivated in KGM containing 20 μM Ca^+2 and 0.1 μg/ml TPA for 24 hours; and (3) control keratinocyte cultures fed 24 hours before RNA isolation with 20 KGM containing, in some experiments, 0.05% DMSO (dimethyl sulphoxide).
Differential display of total RNAs from keratinocyte cultures (1), (2), and (3) was performed with Delta-RNA Fingerprinting Kit™ (Clontech) according to the manufacturer's instructions. Briefly, cDNAs were synthesized from total RNAs using Murine Moloney Leukemia Virus (MMLV) reverse transcriptase. Two dilutions of cDNA were prepared (diluted 10-fold and 40-fold). Each total RNA sample was used to synthesize cDNA that was amplified using polymerase chain reaction (PCR) methodology using P & T primers in presence of [α-^33P] dATP. […] The appearance of a band from a sample that was not present in the control lane indicated overexpression and the disappearance or reduction in intensity of a band indicated suppression of synthesis. The candidate bands were cut from the sequencing gel and reamplified using the original primer pairs. Following electrophoresis on agarose gels, reamplified DNA fragments were cut out and purified using a QIAEX II gel extraction kit™ (QIAGEN). The DNAs were labeled and used to confirm the differential expression by hybridization with Northern blots of Poly (A)^+ containing RNA isolated from total RNAs (1), (2), and (3). Equal quantities of these RNAs were electrophoresed on agarose gels and blotted to nitrocellulose filters. Equal loading of RNA was confirmed by hybridization with a β-actin probe, whose mRNA was assumed to be present in approximately equal amounts in all of the preparations. The blots were stripped of radiolabel and then used to confirm the differential synthesis of a fragment. Upon confirmation, the fragment was cloned into pCRII using the TA cloning kit™ (Introvitrogen). Cloned DNA fragments were sequenced with SequiTerm Excel II kit™ (Epicentre Technology).

A further data set relates to mouse liver. In words: Differential gene expression in livers of DMBA treated mice, Atlas membranes. The conditions noted are these: liver of DMBA treated animal vs control animal.

Results on four molecules are retold here after patent US6593084B2, “Carcinogen assay” (priority 1998, dated 2003).

As for `c1ccoc1` [Furan], the “induction of hepatocellular carcinomas” value with mice was “induce hepatocellular carcinomas”. For the same molecule, the Salmonella mutagenicity test result with Salmonella was “negative”. In addition, in the data set on mammalian cells, the chromosomal aberrations result is reported as “induces”, the gene mutations result is reported as “induces” and the sister chromatide exchanges result is “induces”.
For `CCCCCCCCCCCCCC(=O)O[C@@H]1[C@@H](C)[C@@]2(O)[C@@H](C=C(CO)C[C@]3(O)C(=O)C(C)=C[C@@H]23)[C@@H]2C(C)(C)[C@]12OC(C)=O` [TPA, 12-O-tetradecanoyil-13-phorbol-acetate], the “Changes in Expression (Comparative to Untreated cells)” value in data set [1] (gene fragment 2552/4, 5.5 kb RNA) was “Suppressed in TPA-”; in data set [1] (gene fragment 2672/1, Mouse ESTs AA492919, AA607761), “Suppressed in TPA-”; in data set [1] (gene fragment 4314, AA109991, AA561914, AA067670, AA864127), “Overexpressed in”; in data set [1] (gene fragment 19102/3, Mouse ESTs AA038613, W14382), “Suppressed in TPA-”; in data set [1] (gene fragment 31774/6/8, 6 kb RNA, Mouse ESTs AA423711, W82493), “Suppressed in TPA-”; in data set [1] (gene fragment 31777, Mouse EST AA073833) it was “Overexpressed in”. The “Changes in Expression (Comparative to Untreated cells)” value in data set [1] (gene fragment 83442, Mouse Connexin 26) is reported as “Overexpressed in”; in data set [1] (gene fragment 110176/4, homologous to Mouse Cytokeratin Endo A), “Suppressed in TPA-”; in data set [1] (gene fragment 3177715, Mouse ESTs AA423711, AA637015) it was “Suppressed in TPA-”.
For `Cc1c2ccccc2c(C)c2c1ccc1ccccc12` [DMBA, 7, 12-dimethyl benz[α] anthracene], the “differential pattern of gene expression in liver” value in the data set on mouse liver is on record as “differential expression was observed”.
Consider `ClC=C(Cl)Cl` [TCE, trichloroethylene], for which the “induction of hepatocellular carcinomas” value in the data set on mice is given as “induce hepatocellular carcinomas”. Besides, the Salmonella mutagenicity test result in the data set with Salmonella is recorded as “negative”.
